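All cell lines were grown in 96-well plates and treated with compound for 48 hours. Abbreviation: GI50, concentration required for 50% inhibition of growth. Definition used: TGI = concentration required for complete inhibition of growth.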

Test in all cases: inhibition of tumour cell growth, NCI panel, 48 h
Assay [1] deals with HL-60(TB) leukemia.
Assay [2] deals with KM12 colon.
In assay [3] the test system is M14 melanoma.
Assay [4] deals with MCF7 breast.
For assay [5], the system named is ACHN renal.
The subject of assay [6] is HOP-92 NSCLC.
For assay [7], the system named is COLO 205 colon.
Assay [8] concerns NCI-H460 lung.
For assay [9], the system named is TK-10 renal.
For assay [10], the system named is RXF 393 renal.

Take `COc1cc(C2=NOC(c3cc(OC)c(OC)c(OC)c3)C2)ccc1OCCCCOc1cc2c(cc1OC)C(=O)N1CCC[C@H]1C=N2` (stereo not given in full): the GI50 in assay [1] is 309 nM; in assay [2], 298 nM; in assay [3], 206 nM; in assay [4], 255 nM; in assay [5] it was 243 nM; in assay [6], 339 nM. Besides, the GI50 in [7] is 245 nM; in assay [8] it was 275 nM; in [9] it was 273 nM. The TGI in assay [1] amounted to 6.5 µM; in assay [2], 0.882 µM; in [3], 0.432 µM; in [4], 24.4 µM; in [5], 0.523 µM; in [6] it was 3.08 µM. For the same molecule, the TGI in [7] came out at 0.586 µM; in assay [9], 0.704 µM.
`Cc1ccc2c(c1)[n+]([O-])c(N)n[n+]2[O-]`: the TGI in assay [1], in assay [2], in assay [3], in assay [4], in assay [5] and in assay [7] was over 100 µM each time. In addition, the TGI in assay [8] and in [9] was over 100 µM throughout.
With `CC(C)(CC(=O)Nc1ccccc1)C(=O)O`, the TGI in assay [1], in [2], in assay [3], in [4], in assay [5] and in [6] was over 100 µM in each case. Further, the TGI in assay [7], in assay [8] and in [9] was over 100 µM throughout.
As for `CCC[CH2][Sn]([CH2]CCC)([O]C(=O)c1cccnc1SC)[O]C(=O)c1cccnc1SC`, the GI50 is 160 nM in [1]; 1510 nM in assay [2]; 1040 nM in assay [3]; 878 nM in assay [5]; 602 nM in assay [6]; 1090 nM in assay [7]. The GI50 is 210 nM in [10], 1660 nM in [8] and 527 nM in assay [9]. Also, the TGI was determined as 1.05 µM in assay [1]; 3.08 µM in [2]; 2.29 µM in [3]; 2.09 µM in [5]; 1.93 µM in assay [6]; 2.33 µM in assay [7]. Besides, the values for the TGI in [10], in assay [8] and in assay [9] were 1.12 µM, 3.47 µM and 1.69 µM, respectively.
Regarding `O=C1CCC(=O)N2CCCCN12`, the TGI in assay [1], in assay [2], in [3], in assay [5], in [6] and in assay [7] was over 100 µM each time. For the same molecule, the TGI in [10], in assay [8] and in [9] was over 100 µM each time.
Turning to `O=C(c1ccccc1)c1nnc(C(=O)c2ccccc2)nn1`, the TGI in assay [1], in [2], in assay [3], in [5], in [6] and in [7] was over 344 µM each time. Further, the TGI in [10] was 261 µM; in assay [8], over 344 µM; in assay [9], over 344 µM.
With `CC1=NN(C(=O)Nc2ccccc2)C(=O)C2CCC(=O)N12` (stereo not given), the TGI in assay [1], in assay [2], in [3], in [5], in assay [6] and in assay [7] was over 100 µM throughout. The TGI in assay [10], in assay [8] and in [9] was over 100 µM in each case.
For `COC12C=C(C)C(CC1)CC2C(=O)O` (stereo not given), the TGI in assay [1], in [2], in assay [3], in [5], in assay [6] and in assay [7] was over 100 µM throughout. Also, the TGI in assay [10], in assay [8] and in assay [9] was over 100 µM each time.
For `Brc1cccc(C=NC23CC4CC(CC(C4)C2)C3)c1`, the TGI in assay [1], in assay [2], in [3], in [5], in assay [6] and in [7] was over 100 µM each time. Moreover, the TGI in assay [10], in [8] and in assay [9] was over 100 µM throughout.
Turning to `COc1ccc(C2=CC3CCC2C3)cc1` (stereo not given), the TGI in assay [1], in assay [2], in [3], in assay [5], in assay [6] and in [7] was over 100 µM throughout. For the same molecule, the TGI in assay [10], in assay [8] and in [9] was over 100 µM throughout.
Consider `O=C(/C=C/c1c(O)ccc2ccccc12)c1cccc(O)c1`, for which the TGI in assay [1] is over 64.3 µM; in assay [2], over 100 µM; in assay [3] it was over 100 µM; in assay [5], over 100 µM; in assay [6], 99.5 µM; in assay [7] it was over 100 µM. For the same molecule, the TGI in assay [10], in [8] and in [9] was over 100 µM each time.

The record behind these values is PubChem BioAssay (NCI).
